The source made the active and inactive calls.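 Rule for the calls: active = fitted half-maximal concentration for changing reporter fluorescence at or below a set limit; inactive = the rest.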

The target in this test is Citrate synthase, peroxisomal (Saccharomyces cerevisiae (strain ATCC 204508 / S288c)) (UniProt P08679). Description: CIT2-GFP expression modulators in yeast, dose response, flow cytometry, MLPCN hits (AID 2744). The conditions noted are these: S. cerevisiae CIT2-GFP strain, 3 h; for GFP fluorescence, higher = induction: at 33 µM (top of the series); for EC50: flow cytometry fluorescence. For orientation: A flow cytometer gives signals particle by particle.
Sequence of Citrate synthase, peroxisomal (Saccharomyces cerevisiae (strain ATCC 204508 / S288c)) (P08679 whole entry, looked up): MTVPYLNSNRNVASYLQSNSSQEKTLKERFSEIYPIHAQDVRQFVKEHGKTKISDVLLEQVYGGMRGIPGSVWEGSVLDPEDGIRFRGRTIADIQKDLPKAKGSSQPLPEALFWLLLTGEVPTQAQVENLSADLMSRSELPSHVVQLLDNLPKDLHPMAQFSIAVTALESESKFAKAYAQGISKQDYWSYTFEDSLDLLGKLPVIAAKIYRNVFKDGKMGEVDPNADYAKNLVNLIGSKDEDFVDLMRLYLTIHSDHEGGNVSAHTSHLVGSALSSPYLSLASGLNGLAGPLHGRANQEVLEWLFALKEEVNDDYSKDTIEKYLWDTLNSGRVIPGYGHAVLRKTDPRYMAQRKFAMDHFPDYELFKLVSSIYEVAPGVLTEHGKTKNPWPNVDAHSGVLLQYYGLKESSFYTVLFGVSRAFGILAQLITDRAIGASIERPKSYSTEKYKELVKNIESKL

Take `O=C(O)c1ccn2c(C(=O)c3ccccc3)c(-c3ccccc3)cc2c1`: the “GFP fluorescence, higher = induction” value is “inactive”.

As for `COc1cc(/C=C/c2ccc3c(Br)cc(Br)c(O)c3n2)ccc1O`, the “GFP fluorescence, higher = induction” value was “inactive”.

Turning to `Cc1ccc(/C(N)=N/OC(=O)c2ccc(F)cc2)cc1`, the EC50 (in general, the concentration giving half of the maximal effect) was 3.81 µM.

For the compound `Cc1cc(C(=O)Nc2nc(-c3ccccn3)cs2)ccc1[N+](=O)[O-]`, the “GFP fluorescence, higher = induction” value was “inactive”.

Take `O=C1c2ccccc2C(=O)N1OS(=O)(=O)c1ccc(F)cc1`: the “GFP fluorescence, higher = induction” value is “inactive”.

Take `Cc1ccc(S(=O)(=O)ON2C(=O)c3ccccc3C2=O)c(C)c1`: the “GFP fluorescence, higher = induction” value is “inactive”.

As to `CC(C)(C)n1nc(-c2ccc(Cl)cc2)c2c(N)ncnc21`, the “GFP fluorescence, higher = induction” value is “inactive”.

Consider `COc1ccc(N2C(=O)CC(Sc3ncn[nH]3)C2=O)c(OC)c1` (stereo not drawn), for which the “GFP fluorescence, higher = induction” value was “inactive”.

For `CCOC(=O)CSC1=NC(=O)/C(=C/c2ccc(Br)cc2)S1`, the “GFP fluorescence, higher = induction” value is “inactive”.

`COc1ccc(C2=CC(=O)N(Nc3ccccc3)C2=O)cc1`: the “GFP fluorescence, higher = induction” value was “inactive”.

`CC(=O)Nc1ncnc2c1c(-c1ccc(Cl)cc1)nn2C(C)(C)C`: the “GFP fluorescence, higher = induction” value was “inactive”.

Consider `O=C1C(Cl)=C(Nc2ccccc2O)C(=O)N1c1ccccc1`, for which the “GFP fluorescence, higher = induction” value was “inactive”.

For the compound `Nc1ccccc1SC(C[N+](=O)[O-])c1ccccc1` (stereo not drawn), the “GFP fluorescence, higher = induction” value is “inactive”.

Take `O=C1C=CC(=O)N1c1ccc(OC(F)F)cc1`: the “GFP fluorescence, higher = induction” value is “inactive”.

As to `CCc1sc(C(=O)Nc2nc(-c3ccccn3)cs2)cc1C`, the “GFP fluorescence, higher = induction” value was “inactive”.

On to `Cc1ccc(NC(=O)c2ccc(Cl)c(N3C(=O)C=CC3=O)c2)cc1`, for which the “GFP fluorescence, higher = induction” value was “inactive”.

As to `CCN1/C(=C/C=C/c2sc3ccccc3[n+]2CC)Sc2ccccc21`, the “GFP fluorescence, higher = induction” value was “inactive”.

For the compound `Cc1c(NC2=C(Cl)C(=O)N(c3ccccc3)C2=O)c(=O)n(-c2ccccc2)n1C`, the “GFP fluorescence, higher = induction” value is “inactive”.

In the case of `O=C1NC(=S)NC(=O)C1=Cc1ccc2c(c1)CCN2CCCCl`, the “GFP fluorescence, higher = induction” value was “inactive”.

In the case of `Cc1cc(C2CCCCC2)n(O)c(=O)c1`, the “GFP fluorescence, higher = induction” value is “inactive”.

As for `O=[N+]([O-])c1cc(O)c2ncccc2c1`, the “GFP fluorescence, higher = induction” value was “inactive”.

`CSC1=NS(=O)(=O)c2c(C)nn(C)c2S1`: the “GFP fluorescence, higher = induction” value is “inactive”.

For `CCCS(=O)(=O)c1nnnn1-c1cccc(OC)c1`, the “GFP fluorescence, higher = induction” value is “inactive”.

`COc1cccc(C(=O)Nc2nnc(-c3ccc(Cl)cc3)o2)c1`: the “GFP fluorescence, higher = induction” value is “inactive”.

For `Cc1ccc(NC(=O)c2nc(S(=O)(=O)Cc3ccccc3)ncc2Cl)cc1`, the “GFP fluorescence, higher = induction” value is “inactive”.

For `Cc1ccc(/C=c2\sc3nc(-c4cccs4)nn3c2=O)o1`, the “GFP fluorescence, higher = induction” value is “inactive”.

Regarding `Cc1[nH]c(-c2ccccn2)nc(=S)c1Cl`, the “GFP fluorescence, higher = induction” value was “inactive”.

Regarding `O=C(OCC(=O)N1CCN(C(=O)c2ccco2)CC1)c1cc(-c2cccc(Br)c2)nc2ccccc12`, the “GFP fluorescence, higher = induction” value is “inactive”.

With `Fc1cccc(Nc2ncnc3c2cnn3-c2ccccc2)c1`, the “GFP fluorescence, higher = induction” value was “inactive”.

In the case of `Cc1ccc(/C=N/Nc2ncc(Cl)cc2Cl)s1`, the “GFP fluorescence, higher = induction” value is “inactive”.

Consider `C/C(=N\Nc1ncnc2sc(C)c(C)c12)c1ccccn1`, for which the “GFP fluorescence, higher = induction” value was “inactive”.

As for `CC(=O)SC(C[N+](=O)[O-])c1cn(C(C)=O)c2ccccc12` (stereo not drawn), the “GFP fluorescence, higher = induction” value was “inactive”.

With `COc1cccc(/C=C/C(=O)c2c(O)cc(C)oc2=O)c1O`, the “GFP fluorescence, higher = induction” value is “inactive”.

Consider `Cc1ccc(S(=O)(=O)c2ccc([N+](=O)[O-])cn2)cc1`, for which the “GFP fluorescence, higher = induction” value was “inactive”.

Consider `O=C1C(Cl)=C(NCCc2ccccc2)C(=O)N1CCc1ccccc1`, for which the “GFP fluorescence, higher = induction” value was “inactive”.

As to `Oc1ccc(COCc2ccccc2)c2cccnc12`, the “GFP fluorescence, higher = induction” value was “inactive”.

In the case of `O=[N+]([O-])c1ccc(O)c(/C=N/Nc2ccccn2)c1`, the “GFP fluorescence, higher = induction” value is “inactive”.

Consider `Cn1ncc2c(O/N=C(\N)c3ccc(C(C)(C)C)cc3)ncnc21`, for which the “GFP fluorescence, higher = induction” value was “inactive”.

With `CN(C)c1ccc(/C=C/c2cc[n+](C)cc2)cc1`, the “GFP fluorescence, higher = induction” value is “inactive”.

In the case of `N/C(=N\OC(=O)c1ccc(Cl)cc1Cl)c1ccccc1`, the EC50 was 4.16 µM.

As to `Cc1cccc(N=Nc2ccc(O)c3ncccc23)c1`, the “GFP fluorescence, higher = induction” value is “inactive”.

For the compound `CC(=O)N(C(C)=O)c1ncnc2c1c(-c1ccc(Cl)cc1)nn2C(C)(C)C`, the “GFP fluorescence, higher = induction” value was “inactive”.

With `O=C1C(Cl)=C(N2CCN(Cc3ccccc3)CC2)C(=O)N1c1ccccc1`, the “GFP fluorescence, higher = induction” value was “inactive”.

Regarding `Oc1ccc2ccccc2c1N=Nc1nccs1`, the “GFP fluorescence, higher = induction” value was “inactive”.

`O=C(O)c1ccccc1SC1CC(=O)N(c2ccc3c(c2)OCO3)C1=O` (stereo not drawn): the “GFP fluorescence, higher = induction” value was “inactive”.

Consider `O=C(CCc1ccccc1)NNC(=S)NC(=O)c1ccccc1`, for which the “GFP fluorescence, higher = induction” value is “inactive”.

Consider `Cc1cc(O)c(C(=O)/C=C/c2c(F)c(F)c(F)c(F)c2F)c(=O)o1`, for which the “GFP fluorescence, higher = induction” value was “inactive”.

Turning to `Cc1cc(C)c(S(=O)(=O)ON2C(=O)c3ccccc3C2=O)cc1C`, the “GFP fluorescence, higher = induction” value is “inactive”.

On to `O=C(NNC(=S)NC(=O)C12CC3CC(CC(C3)C1)C2)c1ccncc1`, for which the “GFP fluorescence, higher = induction” value was “inactive”.

With `Cc1cccc(/C=C/C(=O)c2ccc([N+](=O)[O-])o2)c1`, the “GFP fluorescence, higher = induction” value is “inactive”.

For the compound `O=C(C#Cc1ccccc1)c1cccc([N+](=O)[O-])c1`, the “GFP fluorescence, higher = induction” value was “inactive”.

For the compound `COc1ccc(N2C(=O)C(Cl)=C(NCc3ccccc3)C2=O)cc1`, the “GFP fluorescence, higher = induction” value is “inactive”.

`COc1ccc(N2C(=O)C(Cl)=C(Nc3c(C)n(C)n(-c4ccccc4)c3=O)C2=O)cc1`: the “GFP fluorescence, higher = induction” value is “inactive”.

`Cc1ccc(NC(=O)c2cc(N3C(=O)C=CC3=O)ccc2Cl)cc1C`: the “GFP fluorescence, higher = induction” value is “inactive”.

Take `O=C(/C=C/c1ccnc2ccccc12)c1cccs1`: the “GFP fluorescence, higher = induction” value was “inactive”.

As to `N#Cc1ccc(N=c2ssnc2Cl)cc1`, the “GFP fluorescence, higher = induction” value is “inactive”.

Turning to `Cc1cc(Br)c2c(c1)/C(=C/C(=O)c1cccs1)C(=O)N2`, the “GFP fluorescence, higher = induction” value is “inactive”.

On to `O=C(/C=C/c1ccccc1)c1cc(Br)ccc(=O)c1O`, for which the “GFP fluorescence, higher = induction” value was “inactive”.

Take `COc1cccc2c(=O)c(C(=O)NCc3cccs3)c[nH]c12`: the “GFP fluorescence, higher = induction” value was “inactive”.

As for `O=[N+]([O-])c1c(Nc2ccccn2)cc(Cl)c2nonc12`, the “GFP fluorescence, higher = induction” value is “inactive”.

With `O=C(Nc1nc(-c2ccccn2)cs1)C1COc2ccccc2O1` (stereo not drawn), the “GFP fluorescence, higher = induction” value is “inactive”.

Take `COc1ccc(NC2=C(Cl)C(=O)N(CCc3ccccc3)C2=O)c(OC)c1`: the “GFP fluorescence, higher = induction” value was “inactive”.

As to `COc1ccc(-c2cc(C(F)(F)F)nc(S(C)(=O)=O)n2)cc1`, the “GFP fluorescence, higher = induction” value is “inactive”.
